Source: publication PMC5663395, “Chemical Validation of Methionyl-tRNA Synthetase as a Druggable Target in Leishmania donovani” (ACS Infectious Diseases, 2017)

Columns and labels:
LdMetRS = LdMetRS (Leishmania donovani, UniProt A0A3Q8IBX2); test: LdMetRS biochemical enzyme assay (BIOMOL Green); settings: Table 1; read-out: LdMetRS IC50
Protocol: LdMetRS Assay Development and Kinetic Parameter Determinations
Activity of the LdMetRS enzyme was determined by monitoring levels of pyrophosphate released during the first step of the enzymatic reaction. The pyrophosphate formed was converted to two inorganic phosphate molecules using a pyrophosphatase enzyme and levels of the resulting phosphate molecules measured using the BIOMOL® Green reagent (Enzo Life Sciences) 2.
Following optimization of the assay buffer and determination of the enzyme linearity, 384-well plate based assays were carried out at room temperature in a 50 μl reaction volume containing 30 mM Tris, pH 8.0, 140 mM NaCl, 30 mM KCl, 40 mM MgCl2, 0.01% (v/v) Brij-35, 1 mM DTT, 1 U/ml pyrophosphatase, 50 nM recombinant LdMetRS, and varying concentrations of substrates. Michaelis constants for the ATP and methionine substrates were determined in an end point assay using the above buffer and enzyme conditions. Data were fitted to the modified Michaelis-Menten equations […]
Equation 1 (Hill equation): […]
Equation 2 (High substrate inhibition Michaelis-Menten equation): […]
LdMetRS Inhibitor Studies
All test compounds were solubilized in 100% DMSO to a concentration of 10 mM. To generate IC50 data for the compounds, assay ready plates containing 10-point inhibitor curves (half-log serial dilutions) were prepared using an Echo® 550 (Labcyte).
Following preparation of the inhibitor curves, assays were carried out at room temperature in clear, flat bottom, polystyrene, 384-well plates (Greiner). Each assay was performed in a 50 μl reaction volume containing 30 mM Tris; pH 8.0, 140 mM NaCl, 30 mM KCl, 40 mM MgCl2, 0.01% (v/v) Brij-35, 1 mM DTT, 1 U/ml pyrophosphatase, 50 nM recombinant LdMetRS, 50 µM methionine and 100 µM […]
Assays were performed by adding 25 μl buffer with enzyme to assay plates (with buffer only added to ‘no enzyme’ control wells) before the reaction was initiated with the addition of a 25 μl mix containing methionine, ATP and pyrophosphatase to all wells. Following a 120 min reaction at room temperature the assay was stopped with the addition of 50 μl BIOMOL® Green. The BIOMOL® Green signal was allowed to develop for 30 min before the absorbance of each well was read at 650 nm using an EnVision multilabel plate reader (PerkinElmer Life Sciences). All liquid dispensing steps were carried out using a Thermo Scientific WellMate dispenser (Matrix).
ActivityBase from IDBS (version 8.0.5.4) was used for data processing and analysis. All IC50 curve fitting was undertaken using ActivityBase XE (version 7.7.1) from IDBS. A four-parameter logistic dose-response curve was utilized with prefit used for all four parameters.
For DDD806905 Kiapp determinations, data fitting to the Morrison equation (equation 3) was carried out using GraFit v6.0 (Erithacus Software). It should be noted that data for fitting to the Morrison equation was normalised to a ‘100 µM DDD806905’ control rather than a ‘no enzyme’ control as […]
Equation 3 (Morrison equation): […]
vi = K1 −−([ ] [ ]ET+IT+Ki)−([ ] [ ]ET+IT+i)[ ] [ ]TIE4T
LdMetRS Mode of Inhibition Studies
To establish the mode of inhibition of DDD806905, data sets (generated using the BIOMOL® Green assay platform previously described) were collected by varying both the inhibitor and substrate concentrations. Using GraFit v6.0 (Erithacus Software) each data set was individually fitted to the Michaelis-Menten equation or the modified high substrate inhibition Michaelis-Menten equation described above (equation 2), and the resulting Lineweaver-Burk plots were examined for diagnostic […]
Data sets were then globally fitted to the appropriate model (with equations 4 and 5 used for […]
If more than one model appeared possible, then data were fitted to both and examined for significance using the F-test function in GraFit.

THP-1 lysosomes = test: Lysosomotropism assay (LysoTracker Red competition); type: cell-based, human; settings: PMA-differentiated THP-1 cells, 30 min
Protocol: calculated, both in terms of pEC50 values. MIC (minimum inhibitory concentration) values are defined as the lowest concentration tested at which maximal inhibition is reached.
THP-1 cells were differentiated in 96-well plates with PMA as described above. Following differentiation the cells were treated for 30 min with dose-response curves of test compounds in presence of 100 nM LysoTracker Red DND-99 (Thermo Fisher) and 5 µg/ml Hoechst 33342. Next cells were washed 3 times with Hanks Buffered Saline Solution (Gibco) and imaged on a Perkin Elmer Operetta system. An image analysis algorithm to measure mean Lysotracker Red DND-99 intensity per cell was developed in Columbus. Mean Intensity was normalised using a no dye control (100% effect) and DMSO treated wells stained with Lysotracker Red DND-99 (0% effect control). Dose-response curves were fitted for the test compounds using a four-parameter equation (equation 5 above) and constrained to 0 and 100% where necessary.
To measure the pKa of DDD806905, a fast UV-metric method was performed using a Sirius T3 instrument (Sirius Analytical, U.K.). The calculation of the pKa was determined using the Sirius T3 refine software (Sirius Analytical, U.K.). In brief, the UV-metric pKa method is based on measuring pH during an acid-base titration and monitoring UV absorbance shift. The ionisation curve (Bjerrum curve) was then used to determine the pH where exactly 50 % of neutral and 50 % of ionised species was present. DDD806905 must be fully dissolved throughout the titration and so the titration is set to start at the pH where DDD806905 is in its fully ionised state. The appearance of precipitate was monitored throughout the experiment by a turbidity sensing device. […] The pKas of DDD806905 was determined at the pH where there was maximal change in UV absorbance with respect to pH. […]
LogD7.4 values were quantified using a Sirius T3 instrument (Sirius Analytical, U.K.). […] The instrument software calculated the pH of each data point using mass and charge balance equations and then fitted this theoretical data to the experimental data. […]

[1] = tested on: L. donovani axenic amastigotes; test: Leishmania axenic amastigote viability assay; type: cell-based, Leishmania donovani; settings: Leishmania donovani; Table 1; read-out: Leishmania Axenic Amastigote EC50
Protocol: carried out as described above using 5%, 10% and 20% FBS in the media. To examine the effect of the methionine concentration on the potency of DDD806905 parasites were grown in the presence of drug and in the presence (or absence) of 20-fold excess methionine (0.3 g/l). IC50 curve fitting was undertaken in GraFit version 6.0 (Erithacus Software) using a four-parameter logistic dose-response curve (equation 6), with s the slope.
Leishmania Axenic Amastigote Assay
The Leishmania axenic amastigote assay was performed using the method published in Nühs et al 15.
Leishmania Intracellular Amastigote Assay
The intramacrophage Leishmania assay was performed using a modified version of the method described in De Rycker et al 16. […]
amphotericin B was included. Controls were as follows: columns 11 and 12: DMSO, columns 23 and 24: amphotericin B (final concentration 2 µM). 350 nl of compound was pre-dispensed into 384-well sterile intermediary plates. To the intermediary plates, 35 µl of THP-1 media was added and plates were shaken for >5 min to ensure complete mixing. THP-1 cells (8,000 per well, 50 µl) were plated into black clear-bottom 384-well plates (Corning) in presence of 20 nM phorbol 12-myristate 13- […]
in a humidified incubator for 75 h. The cells were then washed with 450 µl sterile phosphate buffered saline (PBS) supplemented with 1 mM CaCl2, 0.5 mM MgCl2, 0.1% (w/v) bovine serum albumin (PBS-A) and amastigotes were added to all wells at a multiplicity of infection of 5 (40,000 amastigotes per well). After 40 min at room temperature, plates were returned to the incubator.
Amastigotes were incubated in the presence of THP-1 macrophages for 16 h. Any remaining extracellular amastigotes were subsequently removed by washing with PBS-A followed by addition of 25 µl of the compound pre-dilutions using an Ipette-pro pipetting station (FluidX). The final dilution of each compound was 200-fold. Plates were incubated for 96 h and then washed (250 µl PBS-A) and fixed (4 % (v/v) formaldehyde-PBS, 30 min, room temperature). After fixation, the wells were washed with 250 µl PBS, stained (10 µg/ml DAPI, 0.4 µg/mL HCS Cellmask Deep Red in PBS + 0.1% (v/v) Triton X-100, 30 min, room temperature) and washed with 250 µl PBS. Finally, PBS + 0.05% (v/v) thimerosal was added to the wells, the plates were sealed and imaged on a high-content microscope (GE IN Cell 2000) using a 10x objective. Image analysis was carried out with GE IN Cell Analyzer 1000 Workstation using the “Multi Target Analysis” module. For each well, i) THP-1 cell count (cytotoxicity readout) and ii) average number of amastigotes per cell (potency readout) were […]

[2] = tested on: Leishmania donovani liver parasite burden; test: Mouse visceral leishmaniasis efficacy model; settings: 30 mg/kg oral once daily for 10 days

LdMetRS, sequence (A0A3Q8IBX2 entry or part of it): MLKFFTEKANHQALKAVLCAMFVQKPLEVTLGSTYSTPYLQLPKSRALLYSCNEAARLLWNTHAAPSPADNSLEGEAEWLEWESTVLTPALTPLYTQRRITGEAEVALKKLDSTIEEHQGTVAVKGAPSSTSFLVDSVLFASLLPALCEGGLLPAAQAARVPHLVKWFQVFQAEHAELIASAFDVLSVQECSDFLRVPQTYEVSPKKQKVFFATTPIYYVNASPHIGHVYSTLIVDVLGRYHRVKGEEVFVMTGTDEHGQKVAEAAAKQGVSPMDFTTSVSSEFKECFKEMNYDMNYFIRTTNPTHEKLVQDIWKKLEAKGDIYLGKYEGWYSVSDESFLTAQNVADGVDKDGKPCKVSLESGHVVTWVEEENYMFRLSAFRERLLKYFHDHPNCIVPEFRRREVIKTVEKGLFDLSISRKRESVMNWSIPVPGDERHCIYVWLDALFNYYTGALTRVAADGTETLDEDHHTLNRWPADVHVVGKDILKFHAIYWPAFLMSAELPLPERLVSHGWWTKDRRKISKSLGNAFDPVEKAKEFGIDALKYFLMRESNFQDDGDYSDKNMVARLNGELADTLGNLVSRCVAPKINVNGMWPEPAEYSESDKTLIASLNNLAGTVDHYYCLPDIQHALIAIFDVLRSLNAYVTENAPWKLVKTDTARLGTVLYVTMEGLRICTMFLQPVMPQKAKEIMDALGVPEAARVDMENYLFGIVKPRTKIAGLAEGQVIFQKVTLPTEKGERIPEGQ

Row | Structure (SMILES) | IC50 (LdMetRS) | competition with lysotracker red accumulation in THP-1 lysosomes (THP-1 lysosomes) | EC50 [1] | reduction (knock-down) of liver parasite burden (LDU) vs vehicle [2]
1 | O=c1nc(NCCCNS(=O)(=O)c2cc(Cl)cc(Cl)c2)[nH]c2ccccc12 [Compound 28] | 1.9 µM | does not compete with lysotracker red | 19 µM | 
2 | CCCCCCCCCCCCCCCCOP(=O)([O-])OCC[N+](C)(C)C [miltefosine, reference compound] |  |  |  | 99.6%
